This data set in a line: Entrapment efficiency by absorbance. Type of data set: physicochemical. The settings on record: sensitizer and emitter loading in TTA-MSNs. Here is the method:
Next, TTA-MSNs were prepared dependence on the following steps. MSNs (50.0 mg) were dispersed 25 mL round flask in of BDP-F (2 mg), PEA (3 mg) and methyl oleate (150 mg) in THF (10 mL). The mixture solution was stirred until organic solvent evaporation (about 12 h) at room temperature in the dark condition. And then 10 mL PBS buffer was added. The mixture was ultrasonic shocked for 20 min. to make the nanoparticles dispersed in the PBS buffer. Then the BDP-F (sensitizer) and PEA (emitter)-loaded silica nanoparticles were low speed centrifuged (1000 rpm/min) for 5 min. The supernatant was collected and then extracted using dichloromethane (DCM). The DCM solvent containing BDP-F and PEA was used to measure sensitizer and emitter loading by collecting UV-vis absorption spectra using a molar absorption coefficient of 177500 M^−1 cm^−1 with)max=615 nm for BDP-F, 18000 M^−1cm^−1 with λmax=420 nm for PEA. Sensitizer and emitter loading were calculated using the following equation: Entrapment efficiency(%)=absorption of the loaded dye/absorption initial mass of the dye×100%.
The precipitate sample was extracted with 10 mL DCM. And then absorbance of Cou-C was measured to calculate the entrapment efficiency. Entrapment efficiency(%)=1−absorption of the unloaded prodrug/initial mass of the prodrug×100%.

The values that follow come from US11827655B2, “Triplet-triplet annihilation upconversion system, and compositions and methods thereof for drug delivery” (University of Massachusetts, priority 2017, dated 2023).

With `C(#Cc1c2ccccc2cc2ccccc12)c1ccccc1` [PEA, 9-phenylacetylene anthracene], the entrapment efficiency worked out at 72%.
